{"source": "ChEMBL document CHEMBL1157722", "about": "“Novel and selective DNA methyltransferase inhibitors: Docking-based virtual screening and experimental evaluation” (Bioorg Med Chem, 2010)", "key": {"[1]": {"biological_target": "DNA (cytosine-5)-methyltransferase 1 (Homo sapiens, UniProt P26358)", "sequence (P26358 whole entry)": "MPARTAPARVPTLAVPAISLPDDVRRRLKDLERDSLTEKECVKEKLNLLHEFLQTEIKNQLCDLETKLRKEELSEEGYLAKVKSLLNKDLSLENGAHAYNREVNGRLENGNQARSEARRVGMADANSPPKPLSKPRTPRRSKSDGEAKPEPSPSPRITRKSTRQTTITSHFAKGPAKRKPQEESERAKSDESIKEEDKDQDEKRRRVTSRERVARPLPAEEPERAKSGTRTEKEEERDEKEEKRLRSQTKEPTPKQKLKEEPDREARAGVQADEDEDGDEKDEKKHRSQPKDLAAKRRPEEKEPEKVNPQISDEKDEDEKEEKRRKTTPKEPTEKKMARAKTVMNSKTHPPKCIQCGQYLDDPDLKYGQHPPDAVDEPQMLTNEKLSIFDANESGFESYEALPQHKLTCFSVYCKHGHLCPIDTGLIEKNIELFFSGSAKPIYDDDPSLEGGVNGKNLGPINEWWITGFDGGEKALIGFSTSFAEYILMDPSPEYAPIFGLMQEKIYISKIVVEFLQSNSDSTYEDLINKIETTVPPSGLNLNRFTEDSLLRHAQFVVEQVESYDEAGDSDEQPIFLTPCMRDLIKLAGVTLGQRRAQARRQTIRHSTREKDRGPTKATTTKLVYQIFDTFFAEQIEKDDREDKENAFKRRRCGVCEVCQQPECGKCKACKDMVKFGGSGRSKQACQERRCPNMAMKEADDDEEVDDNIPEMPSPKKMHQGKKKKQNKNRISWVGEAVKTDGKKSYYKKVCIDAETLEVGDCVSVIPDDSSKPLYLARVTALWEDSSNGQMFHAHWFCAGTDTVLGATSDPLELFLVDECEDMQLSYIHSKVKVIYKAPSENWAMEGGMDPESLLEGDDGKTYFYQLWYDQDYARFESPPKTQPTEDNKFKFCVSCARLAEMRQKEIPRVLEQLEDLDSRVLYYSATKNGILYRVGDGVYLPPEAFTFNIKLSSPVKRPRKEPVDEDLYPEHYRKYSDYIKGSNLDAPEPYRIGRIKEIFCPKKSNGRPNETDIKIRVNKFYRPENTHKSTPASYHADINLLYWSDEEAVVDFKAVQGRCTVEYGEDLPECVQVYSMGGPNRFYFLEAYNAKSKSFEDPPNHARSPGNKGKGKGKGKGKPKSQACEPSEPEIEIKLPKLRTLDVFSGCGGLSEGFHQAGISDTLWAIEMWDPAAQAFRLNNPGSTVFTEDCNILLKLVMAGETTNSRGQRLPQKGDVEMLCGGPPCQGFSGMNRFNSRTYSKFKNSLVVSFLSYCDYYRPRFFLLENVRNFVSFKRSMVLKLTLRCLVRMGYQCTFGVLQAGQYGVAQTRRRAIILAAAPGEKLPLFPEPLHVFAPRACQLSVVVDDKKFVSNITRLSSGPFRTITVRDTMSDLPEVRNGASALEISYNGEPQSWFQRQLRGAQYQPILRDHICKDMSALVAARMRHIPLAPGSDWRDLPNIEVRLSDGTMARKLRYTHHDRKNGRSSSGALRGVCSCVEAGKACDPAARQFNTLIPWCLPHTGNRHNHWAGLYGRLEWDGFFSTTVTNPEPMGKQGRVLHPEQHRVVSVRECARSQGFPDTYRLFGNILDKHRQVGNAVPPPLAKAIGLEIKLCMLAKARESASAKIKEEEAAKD", "assay": "Inhibition of human recombinant DNMT1 expressed in baculovirus-insect cell system by scintillation counting; call rule not given here"}, "[2]": {"biological_target": "DNA (cytosine-5)-methyltransferase 3B (Homo sapiens, UniProt Q9UBC3)", "assay": "Inhibition of human recombinant DNMT3B expressed in baculovirus-insect cell system by scintillation counting"}}}
{"smiles": "O=C(O)COc1ccc(C(=O)c2cc(Br)ccc2OCC(=O)O)cc1", "values": [{"measurement": "IC50", "setting": "[1]; read-out: IC50", "result": 212, "unit": "µM"}, {"measurement": "IC50", "setting": "[2]", "result": "Not Active"}]}
{"smiles": "Nc1ncnc2c1ncn2[C@@H]1O[C@H](CSCC[C@H](N)C(=O)O)[C@@H](O)[C@H]1O", "note": "[S-ADENOSYLHOMOCYSTEINE]", "values": [{"measurement": "IC50", "setting": "[2]; read-out: IC50", "result": 0.25, "unit": "µM"}]}
{"smiles": "O=C(O)CCCC(C(=O)O)N1C(=O)c2ccccc2C1=O", "note": "(stereo not given)", "values": [{"measurement": "IC50", "setting": "[1]", "result": "Not Active"}, {"measurement": "IC50", "setting": "[2]", "result": "Not Active"}]}
